Patent publication US9149038B2, “4-amino-6-(heterocyclic)picolinates and 6-amino-2-(heterocyclic)pyrimidine-4-carboxylates and their use as herbicides” (Dow AgroSciences LLC, priority 2013, dated 2015)
Like-named read-outs stand apart in the source and are kept apart here.

Legend:
[1] = test system: Key Grass and Sedge Weeds as well as Grass Crops; assay: Post-Emergent Test II: postemergent herbicidal activity, visual rating after 14 d (Table 8); format: in vivo; conditions: post-emergence, 336 h; for pest or weed control at 70 g/ha: 70 g ai/ha; for pest or weed control at 140 g/ha: 140 g ai/ha; for pest or weed control at 35 g/ha: 35 g ai/ha
In short: (§1)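 Scoring is visual, 0-100, at 14 d after application, comparing treated with untreated plants. Application: overhead track spray at 187 L/ha onto seedlings at 1-2 true leaves, in surfactant/crop-oil carrier.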

[2] = test system: Key Broadleaf Weed and Crop Species; assay: Post-Emergent Test II: postemergent herbicidal activity, visual rating after 14 d (Table 7); format: in vivo; conditions: post-emergence, 336 h; for pest or weed control at 35 g/ha: 35 g ai/ha; for pest or weed control at 70 g/ha: 70 g ai/ha; for pest or weed control at 140 g/ha: 140 g ai/ha
In short: as §1

[3] = barnyardgrass (Echinochloa crus-galli), read-out: Visual Growth Reduction (%) 14 Days After Application ECHCG
[4] = giant foxtail (Setaria faberi), read-out: Visual Growth Reduction (%) 14 Days After Application SETFA
[5] = maize, corn (Zea mays), read-out: Visual Growth Reduction (%) 14 Days After Application ZEAMX
[6] = rice (Oryza sativa), read-out: Visual Growth Reduction (%) 14 Days After Application ORYSA
[7] = wheat, spring (Triticum aestivum), read-out: Visual Growth Reduction (%) 14 Days After Application TRZAS
[8] = yellow nutsedge (Cyperus esculentus), read-out: Visual Growth Reduction (%) 14 Days After Application CYPES
[9] = lambsquarters (Chenopodium album), read-out: Visual Growth Reduction (%) 14 Days After Application CHEAL
[10] = oilseed rape, canola (Brassica napus), read-out: Visual Growth Reduction (%) 14 Days After Application BRSNN
[11] = redroot pigweed (Amaranthus retroflexus), read-out: Visual Growth Reduction (%) 14 Days After Application AMARE
[12] = sunflower (Helianthus annuus), read-out: Visual Growth Reduction (%) 14 Days After Application HELAN
[13] = velvetleaf (Abutilon theophrasti), read-out: Visual Growth Reduction (%) 14 Days After Application ABUTH
[14] = wild poinsettia (Euphorbia heterophylla), read-out: Visual Growth Reduction (%) 14 Days After Application EPHHL

SMILES	pest or weed control at 70 g/ha [1, 3] [%]	pest or weed control at 35 g/ha [1, 4] [%]	pest or weed control at 70 g/ha [1, 4] [%]	pest or weed control at 140 g/ha [1, 4] [%]	pest or weed control at 35 g/ha [1, 5] [%]	pest or weed control at 70 g/ha [1, 5] [%]	pest or weed control at 140 g/ha [1, 5] [%]	pest or weed control at 35 g/ha [1, 6] [%]	pest or weed control at 70 g/ha [1, 6] [%]	pest or weed control at 140 g/ha [1, 6] [%]	pest or weed control at 35 g/ha [1, 7] [%]	pest or weed control at 70 g/ha [1, 7] [%]	pest or weed control at 140 g/ha [1, 7] [%]	pest or weed control at 35 g/ha [1, 8] [%]	pest or weed control at 70 g/ha [1, 8] [%]	pest or weed control at 140 g/ha [1, 8] [%]	pest or weed control at 35 g/ha [2, 9] [%]	pest or weed control at 70 g/ha [2, 9] [%]	pest or weed control at 140 g/ha [2, 9] [%]	pest or weed control at 35 g/ha [2, 10] [%]	also measured
COc1c(N)nc(-c2ccc3c(c2)OC(F)(F)O3)nc1C(=O)O [Compound 63]	95 to 100	75 to 84	95 to 100	95 to 100	95 to 100	95 to 100	95 to 100	0 to 29	0 to 29	0 to 29	45 to 59	45 to 59	45 to 59	95 to 100	95 to 100	95 to 100	0 to 29	0 to 29	0 to 29	60 to 74	pest or weed control at 140 g/ha [1, 3]: 95 to 100%; pest or weed control at 70 g/ha [2, 10]: 75 to 84%; pest or weed control at 140 g/ha [2, 10]: 75 to 84%; pest or weed control at 35 g/ha [2, 11]: 0 to 29%; pest or weed control at 70 g/ha [2, 11]: 30 to 44%; pest or weed control at 140 g/ha [2, 11]: 60 to 74%; pest or weed control at 35 g/ha [2, 12]: 85 to 94%; pest or weed control at 70 g/ha [2, 12]: 85 to 94%; pest or weed control at 140 g/ha [2, 12]: 85 to 94%; pest or weed control at 35 g/ha [2, 13]: 85 to 94%; pest or weed control at 70 g/ha [2, 13]: 60 to 74%; pest or weed control at 140 g/ha [2, 13]: 85 to 94%; pest or weed control at 35 g/ha [2, 14]: 95 to 100%; pest or weed control at 70 g/ha [2, 14]: 95 to 100%; pest or weed control at 140 g/ha [2, 14]: 95 to 100%
COC(=O)c1nc(-c2cc3c(cc2F)OCO3)cc(N)c1Cl [Compound 45]	75 to 84	60 to 74	60 to 74	85 to 94	45 to 59	60 to 74	75 to 84	45 to 59	60 to 74	60 to 74	30 to 44	45 to 59	60 to 74	30 to 44	30 to 44	60 to 74	85 to 94	95 to 100	95 to 100	75 to 84	pest or weed control at 35 g/ha [1, 3]: 75 to 84%; pest or weed control at 140 g/ha [1, 3]: 85 to 94%; pest or weed control at 70 g/ha [2, 10]: 95 to 100%; pest or weed control at 140 g/ha [2, 10]: 95 to 100%; pest or weed control at 35 g/ha [2, 11]: 95 to 100%; pest or weed control at 70 g/ha [2, 11]: 95 to 100%; pest or weed control at 140 g/ha [2, 11]: 95 to 100%; pest or weed control at 35 g/ha [2, 12]: 60 to 74%; pest or weed control at 70 g/ha [2, 12]: 60 to 74%; pest or weed control at 140 g/ha [2, 12]: 75 to 84%; pest or weed control at 35 g/ha [2, 13]: 95 to 100%; pest or weed control at 70 g/ha [2, 13]: 95 to 100%; pest or weed control at 140 g/ha [2, 13]: 95 to 100%; pest or weed control at 35 g/ha [2, 14]: 75 to 84%; pest or weed control at 70 g/ha [2, 14]: 85 to 94%; pest or weed control at 140 g/ha [2, 14]: 95 to 100%
Nc1nc(-c2ccc3c(c2F)OC(F)(F)O3)nc(C(=O)O)c1Cl [Compound 59]	75 to 84	45 to 59	60 to 74	60 to 74	60 to 74	60 to 74	60 to 74	0 to 29	0 to 29	0 to 29	0 to 29	0 to 29	0 to 29	0 to 29	0 to 29	85 to 94	75 to 84	85 to 94	85 to 94	60 to 74	pest or weed control at 35 g/ha [1, 3]: 75 to 84%; pest or weed control at 70 g/ha [2, 10]: 85 to 94%; pest or weed control at 140 g/ha [2, 10]: 85 to 94%; pest or weed control at 35 g/ha [2, 11]: 45 to 59%; pest or weed control at 70 g/ha [2, 11]: 85 to 94%; pest or weed control at 140 g/ha [2, 11]: 95 to 100%; pest or weed control at 35 g/ha [2, 12]: 60 to 74%; pest or weed control at 70 g/ha [2, 12]: 75 to 84%; pest or weed control at 140 g/ha [2, 12]: 75 to 84%; pest or weed control at 35 g/ha [2, 13]: 0 to 29%; pest or weed control at 70 g/ha [2, 13]: 0 to 29%; pest or weed control at 140 g/ha [2, 13]: 60 to 74%; pest or weed control at 35 g/ha [2, 14]: 95 to 100%; pest or weed control at 70 g/ha [2, 14]: 95 to 100%; pest or weed control at 140 g/ha [2, 14]: 95 to 100%
COC(=O)c1nc(-c2cc3c(cc2Cl)OC(F)(F)O3)c(F)c(N)c1Cl [Compound 12]	0 to 29	0 to 29	0 to 29	0 to 29	0 to 29	0 to 29	0 to 29	0 to 29	0 to 29	0 to 29	0 to 29	0 to 29	0 to 29	0 to 29	0 to 29	0 to 29	0 to 29	0 to 29	0 to 29	0 to 29	pest or weed control at 35 g/ha [1, 3]: 0 to 29%; pest or weed control at 140 g/ha [1, 3]: 0 to 29%; pest or weed control at 70 g/ha [2, 10]: 0 to 29%; pest or weed control at 140 g/ha [2, 10]: 0 to 29%; pest or weed control at 35 g/ha [2, 11]: 0 to 29%; pest or weed control at 70 g/ha [2, 11]: 0 to 29%; pest or weed control at 140 g/ha [2, 11]: 0 to 29%; pest or weed control at 35 g/ha [2, 12]: 0 to 29%; pest or weed control at 70 g/ha [2, 12]: 0 to 29%; pest or weed control at 140 g/ha [2, 12]: 0 to 29%; pest or weed control at 35 g/ha [2, 13]: 0 to 29%; pest or weed control at 70 g/ha [2, 13]: 0 to 29%; pest or weed control at 140 g/ha [2, 13]: 60 to 74%; pest or weed control at 35 g/ha [2, 14]: 0 to 29%; pest or weed control at 70 g/ha [2, 14]: 0 to 29%; pest or weed control at 140 g/ha [2, 14]: 0 to 29%
